From patent US9586978B2, “Anti-viral compounds” (AbbVie Inc., priority 2009, dated 2017)
Like-named read-outs stand apart in the source and are kept apart here.

Key:
HCV 1b-Con1 replicon = HCV 1b-Con1 replicon assay in the presence of 5% FBS (luciferase reporter); type: cell-based; conditions: Hepatitis C virus
HCV genotype 1a replicon = HCV genotype 1a replicon assay; type: cell-based, Hepatitis C virus; conditions: Hepatitis C virus
Description: (§1) [drawing 14] employs a biphenyl linker between the imidazole moieties. See WO2008021927(BMS). The EC50 values of BMS-790052 against different HCV genotypes were shown by Nettles et al., “BMS-790052 is a First-in-class Potent Hepatitis C Virus (HCV) NS5A Inhibitor for Patients with Chronic HCV Infection: Results from a Proof-of-concept Study”, 59th Annual Meeting of the American Association for the Study of Liver Diseases (Oct. 31-Nov. 1, 2008, San Francisco, Calif.; www.natap.org/2008/AASLD/AASLD_06.htm). […] See also Gao et al., NATURE 465:96-100 (2010). The compounds in Table 1 use different linkers between the imidazole moieties. Table 1 depicts the EC50 values of these compounds when tested using respective replicon assays in the presence of 5% (v/v) fetal bovine serum (FBS).
(§2) Table 2 compares compounds containing unsubstituted benzimidazole to those containing halo-substituted benzimidazole. Anti-viral activities were assessed using wild-type replicons (e.g., 1b WT or 1a WT) as well as replicons containing specific NS5A mutations (e.g., 1b L28T, 1b Y93H, 1a L31V, 1a Y93C, 1a M28V, or 1a Q30E) in the absence of FBS.
(§3) Table 3 compares compounds with different linkers between the benzimidazole moieties. Anti-viral activities were determined using 1a and 1b replicon assays. “HP” refers to human plasma. […] As compared to the phenyl linker

HCV genotype 1b replicon = HCV genotype 1b replicon assay; type: cell-based, Hepatitis C virus; conditions: Hepatitis C virus
Description: as §1, §2, §3

HCV genotype 2a replicon = HCV genotype 2a replicon assay; type: cell-based, Hepatitis C virus; conditions: Hepatitis C virus, absence of human plasma; Table 5; read-out: EC50 (nM, in the absence of HP) 2a
Description: as §1

HCV genotype 2b replicon = HCV genotype 2b replicon assay; type: cell-based, Hepatitis C virus; conditions: Hepatitis C virus, absence of human plasma; Table 5; read-out: EC50 (nM, in the absence of HP) 2b
Description: as §1

HCV genotype 3a replicon = HCV genotype 3a replicon assay; type: cell-based, Hepatitis C virus; conditions: Hepatitis C virus, read-out: EC50 (nM, in the absence of HP) 3a, absence of human plasma; Table 5
Description: as §1

HCV genotype 4a replicon = HCV genotype 4a replicon assay; type: cell-based, Hepatitis C virus; conditions: Hepatitis C virus, absence of human plasma; Table 5; read-out: EC50 (nM, in the absence of HP) 4a
Description: as §1

[1] = 40% human plasma, Table 5, read-out: EC50 (nM, in the presence of 40% HP) 1a
[2] = 40% human plasma, Table 5, read-out: EC50 (nM, in the presence of 40% HP) 1b
[3] = 5% FBS and 40% human plasma, Table 3, read-out: EC50 (nM, in the presence of 5% FBS and 40% HP) 1a
[4] = 5% FBS, Table 3, read-out: EC50 (nM, in the presence of 5% FBS) 1a
[5] = 5% FBS and 40% human plasma, Table 3, read-out: EC50 (nM, in the presence of 5% FBS and 40% HP) 1b
[6] = 5% FBS, Table 3, read-out: EC50 (nM, in the presence of 5% FBS) 1b

SMILES	EC50 (HCV genotype 1a replicon; [1])	EC50 (HCV genotype 1b replicon; [2])	EC50 (HCV genotype 2a replicon)	EC50 (HCV genotype 2b replicon)	EC50 (HCV genotype 3a replicon)	EC50 (HCV genotype 4a replicon)	also measured
COC(=O)N[C@H](C(=O)N1CCC[C@H]1c1nc2cc([C@H]3CC[C@H](c4ccc5[nH]c([C@@H]6CCCN6C(=O)[C@@H](NC(=O)OC)C(C)C)nc5c4)N3c3ccc(N4CCCCC4=O)cc3)ccc2[nH]1)C(C)C [Example 1.2]							EC50 (HCV 1b-Con1 replicon): > 10000 nM
COC(=O)N[C@H](C(=O)N1CCC[C@H]1c1nc2cc([C@H]3CC[C@H](c4ccc5[nH]c([C@@H]6CCCN6C(=O)[C@@H](NC(=O)OC)C(C)C)nc5c4)N3c3cc(F)c(N4CCCCC4)c(F)c3)ccc2[nH]1)C(C)C	0.1 nM	0.2 nM	≤ 0.05 nM	≤ 0.05 nM	≤ 0.05 nM	≤ 0.05 nM	
COC(=O)N[C@H](C(=O)N1CCC[C@H]1c1nc2cc([C@H]3CC[C@H](c4ccc5[nH]c([C@@H]6CCCN6C(=O)[C@@H](NC(=O)OC)C(C)C)nc5c4)N3c3ccc(N4CCCCC4)c(C#N)c3)ccc2[nH]1)C(C)C	0.4 nM	0.5 nM	0.07 nM	≤ 0.05 nM	≤ 0.05 nM	≤ 0.05 nM	
COC(=O)N[C@H](C(=O)N1CCC[C@H]1c1nc2cc([C@H]3CC[C@H](c4ccc5[nH]c([C@@H]6CCCN6C(=O)[C@@H](NC(=O)OC)C(C)C)nc5c4)N3c3ccc(C4CC4)cc3)ccc2[nH]1)C(C)C	0.1 nM	0.3 nM	≤ 0.05 nM	≤ 0.05 nM	≤ 0.05 nM	≤ 0.05 nM	
COC(=O)N[C@H](C(=O)N1C[C@@H](OC)C[C@H]1c1nc2cc([C@H]3CC[C@H](c4ccc5[nH]c([C@@H]6C[C@H](OC)CN6C(=O)[C@@H](NC(=O)OC)C(C)C)nc5c4)N3c3ccc(C(C)(C)C)cc3)ccc2[nH]1)C(C)C	0.3 nM	0.8 nM					
COC(=O)N[C@H](C(=O)N1CCC[C@H]1c1nc2cc([C@H]3CC[C@H](c4ccc5[nH]c([C@@H]6CCCN6C(=O)[C@@H](NC(=O)OC)C(C)C)nc5c4)N3c3ccc(N4CCCCC4)c(C(F)(F)F)c3)ccc2[nH]1)C(C)C	0.6 nM	0.3 nM	0.5 nM	≤ 0.05 nM	≤ 0.05 nM	≤ 0.05 nM	
COC(=O)N[C@H](C(=O)N1CCC[C@H]1c1nc2ccc([C@H]3CC[C@H](c4ccc5nc([C@@H]6CCCN6C(=O)[C@@H](NC(=O)OC)C(C)C)[nH]c5c4)N3c3ccc(C4CC4)cc3F)cc2[nH]1)C(C)C	0.1 nM	0.2 nM	≤ 0.05 nM	≤ 0.05 nM	≤ 0.05 nM	≤ 0.05 nM	
COC(=O)N[C@H](C(=O)N1CCC[C@H]1C(=O)Nc1ccc([C@H]2CC[C@H](c3ccc(NC(=O)[C@@H]4CCCN4C(=O)[C@@H](NC(=O)OC)C(C)C)cc3)N2c2ccc(C(C)(C)C)cc2)cc1)C(C)C	0.2 nM	0.1 nM	≤ 0.05 nM	≤ 0.05 nM	≤ 0.05 nM	≤ 0.05 nM	
COC(=O)N[C@H](C(=O)N1CCC[C@H]1c1nc2cc(-c3ccc(-c4ccc5nc([C@@H]6CCCN6C(=O)[C@@H](NC(=O)OC)C(C)C)[nH]c5c4)nc3)ccc2[nH]1)C(C)C							EC50 (HCV genotype 1a replicon; [3]): < 3.2 nM; EC50 (HCV genotype 1a replicon; [4]): < 0.32 nM; EC50 (HCV genotype 1b replicon; [5]): < 3.2 nM; EC50 (HCV genotype 1b replicon; [6]): < 0.32 nM
COC(=O)N[C@H](C(=O)N1CCC[C@H]1C(=O)Nc1ccc([C@@H]2CC[C@@H](c3ccc(NC(=O)[C@@H]4CCCN4C(=O)[C@@H](NC(=O)OC)C(C)C)cc3)N2)cc1)C(C)C							EC50 (HCV genotype 1a replicon; 5% FBS and 40% human plasma, Table 4, read-out: EC50 (nM, in the presence of 5% FBS and 40% HP) 1a): 1200 nM; EC50 (HCV genotype 1a replicon; 5% FBS, Table 4, read-out: EC50 (nM, in the presence of 5% FBS) 1a): 290 nM; EC50 (HCV genotype 1b replicon; 5% FBS and 40% human plasma, Table 4, read-out: EC50 (nM, in the presence of 5% FBS and 40% HP) 1b): 2400 nM; EC50 (HCV genotype 1b replicon; 5% FBS, Table 4, read-out: EC50 (nM, in the presence of 5% FBS) 1b): 320 nM
COC(=O)N[C@H](C(=O)N1CCC[C@H]1c1nc2cc([C@H]3CC[C@H](c4ccc5[nH]c([C@@H]6CCCN6C(=O)[C@@H](NC(=O)OC)C(C)C)nc5c4)N3c3ccc(C(C)(C)C)cc3)ccc2[nH]1)C(C)C	0.1 nM	0.3 nM	0.2 nM	≤ 0.05 nM	≤ 0.05 nM	≤ 0.05 nM	
COC(=O)N[C@H](C(=O)N1CCC[C@H]1c1nc2cc([C@H]3CC[C@H](c4ccc5[nH]c([C@@H]6CCCN6C(=O)[C@@H](NC(=O)OC)C(C)C)nc5c4)N3c3ccc(N4CCCCC4)c(Cl)c3)ccc2[nH]1)C(C)C	0.2 nM	0.2 nM	≤ 0.05 nM	≤ 0.05 nM	≤ 0.05 nM	≤ 0.05 nM	
COC(=O)N[C@H](C(=O)N1CCC[C@H]1c1nc2cc([C@H]3CC[C@H](c4ccc5[nH]c([C@@H]6CCCN6C(=O)[C@@H](NC(=O)OC)C(C)C)nc5c4)N3)ccc2[nH]1)C(C)C							EC50 (HCV genotype 1a replicon; [3]): 2500 to 8000 nM; EC50 (HCV genotype 1a replicon; [4]): > 250 nM; EC50 (HCV genotype 1b replicon; [5]): > 4500 nM; EC50 (HCV genotype 1b replicon; [6]): > 250 nM
COC(=O)N[C@H](C(=O)N1CCC[C@H]1c1nc2cc([C@H]3CC[C@H](c4ccc5[nH]c([C@@H]6CCCN6C(=O)[C@@H](NC(=O)OC)C(C)C)nc5c4)N3c3ccc(N4CCCCC4)c(F)c3)ccc2[nH]1)C(C)C	0.2 nM	0.4 nM	≤ 0.05 nM	≤ 0.05 nM	≤ 0.05 nM	≤ 0.05 nM	
COC(=O)N[C@H](C(=O)N1CCC[C@H]1c1nc2cc([C@H]3CC[C@H](c4ccc5[nH]c([C@@H]6CCCN6C(=O)[C@@H](NC(=O)OC)C(C)C)nc5c4)N3c3ccc(C4CC4)c(F)c3)ccc2[nH]1)C(C)C	0.1 nM	0.1 nM	≤ 0.05 nM	≤ 0.05 nM	≤ 0.05 nM	≤ 0.05 nM	
CCOC(=O)N[C@H](C(=O)N1CCC[C@H]1c1nc2cc(-c3ccc(-c4ccc5nc([C@@H]6CCCN6C(=O)[C@@H](NC(=O)OCC)C(C)C)[nH]c5c4)nc3)ccc2[nH]1)C(C)C							EC50 (HCV genotype 1a replicon; [3]): 83 nM; EC50 (HCV genotype 1a replicon; [4]): 6.8 nM; EC50 (HCV genotype 1b replicon; [5]): 190 nM; EC50 (HCV genotype 1b replicon; [6]): 2.9 nM
COC(=O)N[C@H](C(=O)N1CCC[C@H]1c1nc2cc([C@H]3CC[C@H](c4ccc5[nH]c([C@@H]6CCCN6C(=O)[C@@H](NC(=O)OC)C(C)C)nc5c4)N3c3cc(F)c(N4C[C@H]5CCCC[C@H]5C4)c(F)c3)ccc2[nH]1)C(C)C [Example 4.3, methyl{(2S)-1-[(2S)-2-{5-[(2R,5R)-1-{3,5-difluoro-4-[(3aR,7aS)-octahydro-2H-isoindol-2-yl]phenyl}-5-{2-[(2S)-1-{(2S)-2-[(methoxycarbonyl)amino]-3-methylbutanoyl}pyrrolidin-2-yl]-1H-benzimidazol-5-yl}pyrrolidin-2-yl]-1H-benzimidazol-2-yl}pyrrolidin-1-yl]-3-methyl-1-oxobutan-2-yl}carbamate]	0.1 nM	0.2 nM					
